# Experimental data: US20230321287A1, “RADIOLABELLED GRPR-ANTAGONIST FOR USE AS THERAGNOSTIC” (NOVARTIS AG, priority 2019, published 2023)
# How the values were obtained:
# GRPR [1] = target: T1, GRPR (Homo sapiens, UniProt P30550); details: non-clinical models; cited from earlier work
# Target sequence in this assay (P30550 whole entry, species assumed): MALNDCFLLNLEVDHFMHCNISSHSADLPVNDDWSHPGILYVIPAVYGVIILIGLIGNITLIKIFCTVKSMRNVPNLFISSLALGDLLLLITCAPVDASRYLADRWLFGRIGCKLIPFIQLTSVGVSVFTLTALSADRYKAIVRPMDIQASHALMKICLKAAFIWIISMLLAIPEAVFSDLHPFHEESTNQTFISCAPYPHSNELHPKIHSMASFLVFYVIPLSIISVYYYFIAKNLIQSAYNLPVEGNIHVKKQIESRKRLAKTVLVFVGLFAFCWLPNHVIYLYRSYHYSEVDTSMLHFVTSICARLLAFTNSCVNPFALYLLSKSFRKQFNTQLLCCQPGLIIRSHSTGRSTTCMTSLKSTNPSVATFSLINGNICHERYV
# GRPR [2] = target: T1, GRPR; assay: lesion-level analysis, [68Ga]-NeoB PET versus conventional imaging; format: in vivo; set-up: from tissue; host or cells: tumour lesions in patients (breast, prostate, colorectal, NSCL, SCL cancer), in vivo
# Method: PET/CT or PET/MRI imaging is performed after the compound 1 administration ideally at 2 h 30 min ±30 min.
# The spleen is the reference region to assess pathological [68Ga]-NeoB uptake.
# NeoB in patients with malignancies known to overexpress GRPR.
# Target sequence in this assay (P30550 whole entry): as the sequence (P30550 whole entry, species assumed) above
compound,measurement,setting,value
"CC(C)CC(CC(C)C)NC(=O)[C@H](Cc1cnc[nH]1)NC(=O)CNC(=O)[C@@H](NC(=O)[C@H](C)NC(=O)[C@H](Cc1c[nH]c2ccccc12)NC(=O)[C@H](CCC(N)=O)NC(=O)[C@@H](Cc1ccccc1)NC(=O)COCC(=O)Nc1ccc(CNC(=O)CN2CCN(CC(=O)O)CCN(CC(=O)O)CCN(CC(=O)O)CC2)cc1)C(C)C [[68Ga]-NeoB, metal not drawn]",internalization upon binding to the specific receptor,GRPR [1],low degree of internalization
same,Number of lesions,"GRPR [2]; Breast N=5, [68Ga]-NeoB Negative, conventional imaging Positive",44
same,Number of lesions,"GRPR [2]; Breast N=5, [68Ga]-NeoB Negative, conventional imaging Total",44
same,Number of lesions,"GRPR [2]; Breast N=5, [68Ga]-NeoB Positive, conventional imaging Negative",37
same,Number of lesions,"GRPR [2]; Breast N=5, [68Ga]-NeoB Positive, conventional imaging Positive",48
same,Number of lesions,"GRPR [2]; Breast N=5, [68Ga]-NeoB Positive, conventional imaging Total",85
same,Number of lesions,"GRPR [2]; Breast N=5, [68Ga]-NeoB Total, conventional imaging Negative",37
same,Number of lesions,"GRPR [2]; Breast N=5, [68Ga]-NeoB Total, conventional imaging Positive",92
same,Number of lesions,"GRPR [2]; Breast N=5, [68Ga]-NeoB Total, conventional imaging Total",129
same,lesions identified by conventional imaging also identified by [68Ga]-NeoB,GRPR [2]; Breast cancer N=5,52.2%
same,Number of lesions,"GRPR [2]; Colorectal N=5, [68Ga]-NeoB Negative, conventional imaging Positive",43
same,Number of lesions,"GRPR [2]; Colorectal N=5, [68Ga]-NeoB Negative, conventional imaging Total",43
same,Number of lesions,"GRPR [2]; Colorectal N=5, [68Ga]-NeoB Positive, conventional imaging Negative",0
same,Number of lesions,"GRPR [2]; Colorectal N=5, [68Ga]-NeoB Positive, conventional imaging Positive",18
same,Number of lesions,"GRPR [2]; Colorectal N=5, [68Ga]-NeoB Positive, conventional imaging Total",18
same,Number of lesions,"GRPR [2]; Colorectal N=5, [68Ga]-NeoB Total, conventional imaging Negative",0
same,Number of lesions,"GRPR [2]; Colorectal N=5, [68Ga]-NeoB Total, conventional imaging Positive",61
same,Number of lesions,"GRPR [2]; Colorectal N=5, [68Ga]-NeoB Total, conventional imaging Total",61
same,lesions identified by conventional imaging also identified by [68Ga]-NeoB,GRPR [2]; Colorectal cancer N=5,29.5%
same,Number of lesions,"GRPR [2]; NSCL N=3, [68Ga]-NeoB Negative, conventional imaging Positive",20
same,Number of lesions,"GRPR [2]; NSCL N=3, [68Ga]-NeoB Negative, conventional imaging Total",20
same,Number of lesions,"GRPR [2]; NSCL N=3, [68Ga]-NeoB Positive, conventional imaging Negative",0
same,Number of lesions,"GRPR [2]; NSCL N=3, [68Ga]-NeoB Positive, conventional imaging Positive",10
same,Number of lesions,"GRPR [2]; NSCL N=3, [68Ga]-NeoB Positive, conventional imaging Total",10
same,Number of lesions,"GRPR [2]; NSCL N=3, [68Ga]-NeoB Total, conventional imaging Negative",0
same,Number of lesions,"GRPR [2]; NSCL N=3, [68Ga]-NeoB Total, conventional imaging Positive",30
same,Number of lesions,"GRPR [2]; NSCL N=3, [68Ga]-NeoB Total, conventional imaging Total",30
same,lesions identified by conventional imaging also identified by [68Ga]-NeoB,GRPR [2]; NSCL cancer N=3,33.3%
same,Number of lesions,"GRPR [2]; Prostate N=5, [68Ga]-NeoB Negative, conventional imaging Positive",59
same,Number of lesions,"GRPR [2]; Prostate N=5, [68Ga]-NeoB Negative, conventional imaging Total",59
same,Number of lesions,"GRPR [2]; Prostate N=5, [68Ga]-NeoB Positive, conventional imaging Negative",1
same,Number of lesions,"GRPR [2]; Prostate N=5, [68Ga]-NeoB Positive, conventional imaging Positive",10
same,Number of lesions,"GRPR [2]; Prostate N=5, [68Ga]-NeoB Positive, conventional imaging Total",11
same,Number of lesions,"GRPR [2]; Prostate N=5, [68Ga]-NeoB Total, conventional imaging Negative",1
same,Number of lesions,"GRPR [2]; Prostate N=5, [68Ga]-NeoB Total, conventional imaging Positive",69
same,Number of lesions,"GRPR [2]; Prostate N=5, [68Ga]-NeoB Total, conventional imaging Total",70
same,lesions identified by conventional imaging also identified by [68Ga]-NeoB,GRPR [2]; Prostate cancer N=5,14.5%
same,Number of lesions,"GRPR [2]; SCL N=1, [68Ga]-NeoB Negative, conventional imaging Positive",1
same,Number of lesions,"GRPR [2]; SCL N=1, [68Ga]-NeoB Negative, conventional imaging Total",1
same,Number of lesions,"GRPR [2]; SCL N=1, [68Ga]-NeoB Positive, conventional imaging Negative",0
same,Number of lesions,"GRPR [2]; SCL N=1, [68Ga]-NeoB Positive, conventional imaging Positive",1
same,Number of lesions,"GRPR [2]; SCL N=1, [68Ga]-NeoB Positive, conventional imaging Total",1
same,Number of lesions,"GRPR [2]; SCL N=1, [68Ga]-NeoB Total, conventional imaging Negative",0
same,Number of lesions,"GRPR [2]; SCL N=1, [68Ga]-NeoB Total, conventional imaging Positive",2
same,Number of lesions,"GRPR [2]; SCL N=1, [68Ga]-NeoB Total, conventional imaging Total",2
same,lesions identified by conventional imaging also identified by [68Ga]-NeoB,GRPR [2]; SCL cancer N=1,50%
same,Number of lesions,"GRPR [2]; overall cancer N=19, Nodal, [68Ga]-NeoB Negative, conventional imaging Positive",36
same,Number of lesions,"GRPR [2]; overall cancer N=19, Nodal, [68Ga]-NeoB Negative, conventional imaging Total",36
same,Number of lesions,"GRPR [2]; overall cancer N=19, Nodal, [68Ga]-NeoB Positive, conventional imaging Negative",1
same,Number of lesions,"GRPR [2]; overall cancer N=19, Nodal, [68Ga]-NeoB Positive, conventional imaging Positive",18
same,Number of lesions,"GRPR [2]; overall cancer N=19, Nodal, [68Ga]-NeoB Positive, conventional imaging Total",19
same,Number of lesions,"GRPR [2]; overall cancer N=19, Nodal, [68Ga]-NeoB Total, conventional imaging Negative",1
